Legend:
HepG2 hepatocyte line = tested on: HepG2 hepatocyte line; design: method as in PMID 8898096; conditions: Aβ 1–40 treatment of human HepG2 hepatocyte line; cited from earlier work
Caco-2 cells [1] = assay: Cholesterol Uptake Cell-Based Assay (NBD Cholesterol); design: species or system human; conditions: 40 min; for Cholesterol uptake: 8 samples
Experimental: Cholesterol was measured following the protocol provided in the Cholesterol Uptake Cell-Based Assay Kit from Cayman Chemical Company (Ann Arbor, Michigan USA). […] At the end of treatment, the plates were aspirated and cell-based assay buffer was added to each well and NBD Cholesterol uptake was quantified using a fluorescent plate reader (480 nm excitation and 520 nm emission).
Fig 4 Aβ and 22C11 agonist decreased cholesterol uptake whereas the sAPP-derived peptide and SM-ϕ stimulated increased cholesterol uptake by Caco-2 cells. […] Representative data from 3 independent experiments are shown.

Caco-2 cells [2] = assay: Western blotting of protein levels in stimulated Caco-2 cells; assay type: cell-based, human; conditions: western blot, 3 samples
Experimental: Following stimulation, cells were lysed using ice cold radioimmunoprecipitation assay (RIPA) buffer (20mM Tris, pH 7.4, 150mM NaCl, 1mM Na3VO4, 10mM NaF, 1mM EDTA, 1mM EGTA, 0.2mM phenylmethylsulfonyl fluoride, 1% Triton, 0.1% SDS, and 0.5% deoxycholate) with protease inhibitors (AEBSF 1mM, Aprotinin 0.8μM, Leupeptin 21μM, Bestatin 36μM, Pepstatin A 15μM, E-64 14μM) and 50U/mL DNAse1(Amresco Inc, Solon, OH, USA). To remove insoluble material cell lysates were sonicated and centrifuged (14,000 rpm, 4°C, 10 min). The Bradford method was used to quantify protein concentrations. Proteins were resolved by 7 or 10% sodium dodecyl sulfate-polyacrylamide gel electrophoresis (SDS-PAGE) and transferred to polyvinylidene difluoride membranes (PVDF) for western blotting using anti-APP (Y188), CD36, occludin, LFABP, FATP4, pSrc, cSrc, and GAPDH (loading control) antibodies. Antibody binding was detected with enhanced chemiluminescence (GE Healthcare, Piscataway, NJ). In some instances, blots were stripped in […], 10 min, 25°C, for reprobing. Western blots were quantified using Adobe Photoshop software. Optical densities of bands were normalized against their respective loading controls and averaged (+/-SD).
Fig 5 Aβ, APP, and CD36 stimulations selectively altered protein levels in Caco-2 cells.

Caco-2 cells [3] = assay: Cytokine ELISAs (IL-8, MCP-1, MDC, IL-6, TNFα) of media from stimulated Caco-2 cells; assay type: cell-based, human; conditions: ELISA of media, normalized to protein, 6 samples
Caco-2 cells [4] = assay: Aβ uptake assay with FITC labeled Aβ 1–40; assay type: in vitro ADME, human
Experimental: FITC labeled Aβ 1–40 was prepared according to the manufacturer’s protocol (rPeptide, Bogart, GA, USA). 500nM of the peptide was added to confluent cells in serum free DMEM/F12 for 4 hours in the absence or presence of 10ng/mL LPS. The media was then removed and extracellular peptide signal was quenched by rinsing cells with 0.25% trypan blue dissolved in PBS. The trypan blue incubation served to quench FITC-Aβ signal from any peptide that was associated with the extracellular plasma membrane surface or with the tissue culture plastic of the wells. Intracellular Aβ signal was then quantified using a fluorescent plate reader (480 nm excitation and 520 nm emission).
(§1) Fig 2 Caco-2 cells secreted and took up Aβ. […] The cells were rinsed with trypan blue to quench extracellular signal from FITC-Aβ on the cell surface or surface of the tissue culture dish and intracellular Aβ fluorescence was measured with a fluorescent plate reader (480 nm excitation and 520 nm emission) (B).

Caco-2 cells [5] = assay: Aβ 1–40 and Aβ 1–42 ELISA of media from stimulated Caco-2 cells (Aβ secretion); assay type: cell-based, human; conditions: overnight stimulation in serum free DMEM/F12; 10ng/mL LPS or 1μg/mL 22C11; 3 experiments in a replicate of 8
Experimental: Caco-2 cells were purchased from ATCC (Manassas, VA, USA). These are an epithelial-like cell line derived from a colorectal adenocarcinoma from a person. Caco-2 cells were maintained in DMEM/F12 (Gibco, Life Technologies, Grand Island, NY, USA) supplemented with 10% heat inactivated fetal bovine serum (FBS), 5% donor horse serum (Serum Source International, Charlotte, NC, USA) and antibiotics (0.05mg penicillin/0.05mg streptomycin/0.01mg neomycin/mL) (Sigma-Aldrich, St. Louis, MO, USA). Caco-2 cells were plated and allowed to grow to confluency before removing supplemented media and replacing with serum free DMEM/F12 with or without treatments. Following stimulation, Caco-2 cells were used for ELISA, Aβ uptake, cholesterol assays, immunoprecipitation, and western blot analysis.
The cells were lysed using ice cold RIPA buffer with protease inhibitors and 50U/mL DNAse1. […] The Bradford method was used to quantify protein concentrations for normalization of Aβ in the media and lysates were used for western blotting.
as §1

[6] = design: method as in PMID 12897403; conditions: in vivo, iv; cited from earlier work

For “Aβ 1–40: amyloid β 1–40 peptide purchased from rPeptide”, the “steady state levels of intracellular cholesterol, cholesterol esters, phospholipids, and triacylglycerol” value (HepG2 hepatocyte line) is listed as “attenuate”, the Cholesterol uptake (Caco-2 cells [1]; 100nM, 1μM and 5μM Aβ 1–40 (all three concentrations), 20μg/ml NBD Cholesterol) is listed as “decreased” and the “Cholesterol uptake, concentration comparison” value (Caco-2 cells [1]; 1μM Aβ 1–40 compared with 100nM and 5μM) is listed as “most dramatic effect”. For the same substance, the “protein levels of other proteins examined (besides occludin)” value (Caco-2 cells [2]; 1μM Aβ 1–40 overnight, compared to control untreated cells) was “no effect”, the occludin protein levels (Caco-2 cells [2]; overnight stimulation, 1μg/mL antibody or 1μM Aβ 1–40) was “decreased” and the IL-6 cytokine secretion (Caco-2 cells [3]; 1μM Aβ 1–40, 24h) was “increased”.
For “fluorescently labeled Aβ 1–40: FITC labeled Aβ 1–40 prepared according to the manufacturer's protocol (rPeptide)”, the “Uptake of fluorescently labeled Aβ 1–40 into cells (intracellular fluorescence)” value (Caco-2 cells [4]; 500nM FITC Aβ 1–40, 4 hr, confluent Caco-2, serum free DMEM/F12, extracellular signal quenched with 0.25% trypan blue, fluorescent plate reader 480/520 nm, 3 experiments in a replicate of 8) was “could take up Aβ peptide”.
For lipopolysaccharide [LPS], the “Effect on uptake of FITC Aβ 1–40 by Caco-2 cells” value (Caco-2 cells [4]; 10ng/mL LPS present with 500nM FITC Aβ 1–40, 4 hr) was “not affected”, the “Aβ secretion (Aβ 1–40 and Aβ 1–42 ELISA)” value (Caco-2 cells [5]) was “higher concentrations of Aβ 1–40 compared to Aβ 1–42 released” and the Cholesterol uptake (Caco-2 cells [1]; 10ng/mL LPS, 20μg/ml NBD Cholesterol in glucose free HBSS) was “increased”. For the same substance, the IL-8 cytokine secretion (Caco-2 cells [3]; 10ng/mL LPS, 24h) was “increased” and the TNFα cytokine secretion (Caco-2 cells [3]; 10ng/mL LPS, 24h) was “increased”.
In the case of “radiolabeled Aβ 1–40: radiolabeled Aβ 1–40 associated with chylomicron-like particles, literature study”, the transport into organs [6] is given as “can be transported into diverse organs including adipose tissue and brain”.
